# Measurements taken from patent US9060997B2, “Antifolate compounds for the treatment of melanoma” (UNIVERSIDAD DE MURCIA, priority 2007, dated 2015).
# Read-outs that look alike come from different tables or passages of the source.
# Columns and labels:
# SkMel-28 cells [1] = assay: MTT cell proliferation assay, SkMel-28; type: cell-based, human; details: for IC50: SK-MEL-28, 120 h
# Procedure: (§1) Four human cancer cells lines (SkMel-28, MCF7, H1264 and Caco-2) were obtained from the American Type Tissue Culture Collection (ATCC) and were maintained in appropriate culture mediums supplemented with 10% fetal calf serum (FCS) and antibiotics, under standard tissue culture conditions (e.g. modified Eagle's medium (MEM) containing 1 mM sodium pyruvate and 10% fetal bovine serum (FES) under 5% CO2/95% air atmosphere.). Cell injury was evaluated by a colorimetric assay for mitochondrial function using the 3-(4,5-dimethylthiazolyl-2)-2,5-diphenyltetrazolium bromide (MTT) cell proliferation assay. For this assay cells were plated in a 96-well plate at a density of 1000 cells/well and grown until they reached 50-60% confluence. Human epidermal melanocytes (HeM) were supplied by Gentaur and were cultured in HAM-F10 medium supplemented with 10% FCS, antibiotics and the human melanocyte growth supplement (Gentaur).
# Cell injury was evaluated by a colorimetric assay for mitochondrial function using the 3-(4,5-dimethylthiazolyl-2)-2,5-diphenyltetrazolium bromide (MTT) cell proliferation assay. For this assay cells were plated in a 96-well plate at a density of 1000 cells/well and grown until they reached 30% confluence. Co-treatments of SkMel-28 cells with TMECG and other reagents were carried out by supplementing medium cultures with S-adenosylmethionine (SAM), adenosine or dipyridamole (all from Sigma).
# [2] = tested on: B16/F10 melanoma cell tumours; assay: Primary tumour model, B16/F10 melanoma in C57/B16 mice; type: in vivo, mouse
# Text: Translational therapy was then designed to probe the efficacy of this combination on mice induced melanoma tumor. Injection of 5×10^5 B16/F10 melanoma cells in the back of C57/B16 mice formed a blackish tumor mass, which in untreated control mice reached to a tumor area of 3.7±0.7 and 9.3±1.1 cm2 in female and male, respectively, after 21 days of cells inoculation.
# Caco-2 cells = assay: MTT cell proliferation assay, Caco-2; type: cell-based, human; details: Caco-2
# Procedure: as §1
# rHDHFR [3] = biological target: T1, rHDHFR (Homo sapiens, UniProt P00374); assay: rHDHFR binding: fluorescence titration and stopped-flow fluorescence; details: for koff: calculated from KI=koff/kon; for Ki: dissociation constant, free rHDHFR, fluorescence titration; for Ki / kon: pH 7.4, 25° C.; for kon: stopped-flow fluorescence
# T1 construct: purchased Sigma
# T1 sequence (P00374 1-187): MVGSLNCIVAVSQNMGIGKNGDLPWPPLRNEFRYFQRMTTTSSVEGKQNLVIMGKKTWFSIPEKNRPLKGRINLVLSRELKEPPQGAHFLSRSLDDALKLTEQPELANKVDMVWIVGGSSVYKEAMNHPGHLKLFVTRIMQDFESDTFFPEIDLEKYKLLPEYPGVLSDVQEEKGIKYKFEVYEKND
# Procedure: The experiments were carried out in a buffer containing 2-(N-morpholino)ethanesulfonic acid (Mes, 0.025 M), sodium acetate (0.025 M), tris-(hydroxymethyl)aminomethane (Tris 0.05 M), and NaCl (0.1 M) at pH 7.4 and 25° C. in the presence of QM and rHDHFR (0.5 μM).
# Stopped-flow fluorescence experiments were carried out at pH 7.4 and 25° C. using an enzyme concentration of 0.25 μM. The reaction of rHDHFR with inhibitors was observed under pseudo-first order conditions by fluorescence at 340 nm (excitation at 290 nm). The data points s are the means of at least 3 (normally 5) repeat observations±SD. […] Aliquots (20 μl) of the incubation mixture was then diluted 50-fold into a reaction mixture containing the buffer, NADPH (100 μM), and DHF (10 μM) to give a final enzyme concentration of 1.5 nM.
# (§2) The activity of rHDHFR was determined at 25° C. by following the decrease in the absorbance of NADPH and DHF at 340 nm (ε=11800 M-1 cm−1) (Stone and Morrison, 1986). Progress curves were obtained under ordered conditions ([NADPH]>>[DHF]). rHDHFR inhibition constants were calculated as described by Navarro-Perán et al., 2005b. The dissociation constant for the binding of inhibitors to free rHDHFR was determined at 25° C. by fluorescence titration in an automatic-scanning Perkin-Elmer LS50B spectrofluorimeter. Fluorescence emission spectra were recorded when rHDHFR fluorescence was excited at 290 nm. Stopped-flow fluorescence experiments were carried out using an Applied Photophysics Ltd. Pi-Star 180 spectrometer with a stopped-flow unit at 25° C.
# rHDHFR [4] = biological target: T1, rHDHFR; assay: rHDHFR inhibition, progress curves; type: biochemical; details: for Decrease % further EI reactions: decrease of KI to KI* by further EI-complex reactions; for Ki: overall (effective) inhibition constant, read-out: KI*
# Procedure: The experiments were carried out in the same buffer as fluorescence experiments in the presence of NADPH (100 μM), DHF (10 μM), and rHDHFR (1.5 nM).
# as §2
# human tyrosinase = biological target: T2, human tyrosinase (Homo sapiens, UniProt P14679); details: recombinant human tyrosinase (Kong et al., 2000); read-out: Michaelis-Menten constant (Km), value reported; cited from earlier work
# T2 sequence (P14679 19-529): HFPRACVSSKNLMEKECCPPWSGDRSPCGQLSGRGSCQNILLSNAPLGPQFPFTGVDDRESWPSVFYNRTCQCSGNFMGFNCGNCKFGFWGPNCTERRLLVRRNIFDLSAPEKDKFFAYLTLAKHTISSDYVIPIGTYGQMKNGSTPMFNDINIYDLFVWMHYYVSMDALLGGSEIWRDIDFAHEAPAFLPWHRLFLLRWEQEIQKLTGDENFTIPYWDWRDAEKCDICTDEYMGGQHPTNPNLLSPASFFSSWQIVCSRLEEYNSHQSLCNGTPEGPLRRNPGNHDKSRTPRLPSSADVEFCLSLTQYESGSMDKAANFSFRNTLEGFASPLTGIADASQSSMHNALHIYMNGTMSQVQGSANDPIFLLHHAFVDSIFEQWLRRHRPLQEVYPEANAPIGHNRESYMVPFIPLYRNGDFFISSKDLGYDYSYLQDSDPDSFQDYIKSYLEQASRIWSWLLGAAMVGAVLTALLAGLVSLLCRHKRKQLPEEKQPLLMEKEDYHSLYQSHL
# SkMel-28 cells [5] = assay: Microscopy of melanosome melanin content; type: cell-based, human; details: treated SkMel-28 versus untreated
# Procedure: Confluent monolayers of SkMel-28 were harvested with a mixture of 0.05% trypsin, 0.53 mmol/L EDTA and washed once in 0.25 mol/L sucrose by centrifugation at 700×g for 5 min at 4° C. They were then homogenized on ice using 20 strokes of an ice-cold Dounce homogenizer and centrifuged at 700×g for 10 min at 4° C. The resultant postnuclear supernatant was centrifuged at 17,000×g for 15 min at 4° C. to yield a melanosome-enriched granular fraction (17). This fraction was resuspended in 0.5-2 ml of ice-cold 0.25 mol/L sucrose, 10 mmol/L HEPES, pH 7.0 and fixed for 1 h at room temperature in 2% glutaraldehyde, 2% paraformaldehyde in 0.1 mol/L sodium cacodylate buffer, pH 7.3. The fixative was then removed and the samples stored in PBS containing 4% sucrose at 4° C. Samples were subsequently dehydrated with graded alcohols and embedded in epoxy resin. This section were stained with uranyl acetate and lead citrate and examined with a Zeiss EM10 electron microscope.
# [6] = tested on: Caco-2 and SkMel-28 cells; assay: Cellular uptake of ECG, TMECG and QM; type: in vitro ADME, human; details: 50 μM catechins
# Procedure: Cellular uptake was determined by the difference between the initial concentration of catechin and the calculated at specific times in the cellular medium, and expressed as a percentage of catechin at zero time. The values presented are the mean percentage determined from five independent experiments±SD.
# For cellular uptake experiments Caco-2 and SkMel-28 cells were grown until reaching 90% confluence. Then, 20 ml of cellular medium containing 50 μM catechins and 0.2 mM ascorbic acid was added and incubated for 60 h in a CO2 incubator. At specified times 1 ml-aliquots were taken and frozen in liquid N2 until the catechin concentrations were determined by HPLC. Catechins were identified by their characteristic elution times and their concentration calculated with respect to calibration curves of known concentrations of catechins.
# [7] = pH dependence of absorbance and stability of the tyrosinase product; type: physicochemical
# Text: We studied the oxidation of TMECG by tyrosinase at pH 5.5. […] The initial formation of o-Q was confirmed by including reducing agents such as ascorbic acid or NADPH in the reaction medium. […] The pH transition might represent the equilibrium between the protonated form (QMH) and the deprotonated form (QM^−), a species which is stabilized by resonance and FIG. 9E represents the possible abundance of QM species in different melanocyte compartments.
# MAT2A = details: cited from earlier work
# [8] = tested on: 4T1 mice breast cancer cell line; assay: 4T1 breast cancer model in Balb/c mice; type: in vivo, mouse; details: 40 mg/Kg/d intraperitoneally, Balb/c female mice
# Procedure: The 4T1 mice breast cancer cell line (ATCC) was used for tumour implantation. This cell line is highly metastatic and after its injection on the back of the Balb/c mice it expanded to the lungs forming metastasis in this organ. Initial experiments were designed for injection in the back to follow tumour growth and lung metastasis.
# We treated 6 Balb/c female mice were treated intraperitoneally with TMCG (40 mg/Kg/d) and compared with 6 untreated (control) mice.
molecule,measurement,setting,value
"Nc1ncnc2c1ncn2[C@@H]1O[C@H](CO)[C@@H](O)[C@H]1O [Adenosine, adenosine]",effect of adenosine alone on SkMel-28 growth,SkMel-28 cells [1]; up to 500 μM,had not any detectable effect
"OCCN(CCO)c1nc(N2CCCCC2)c2nc(N(CCO)CCO)nc(N3CCCCC3)c2n1 [Dipyridamole, dipyridamole, reference compound]",IC50,"SkMel-28 cells [1]; Homo sapiens, dipyridamole alone, SkMel-28, read-out: IC50 (at 5 days)",20000 nM
same,IC50,"SkMel-28 cells [1]; Homo sapiens, in the presence of 50 μM TMECG, SkMel-28, read-out: IC50 (at 5 days) in the presence of TMECG",< 1000 nM
same,effect on tumor growth,"[2]; females, DIPY 10 mg/Kg/d alone",had not visible effects on tumor growth
same,effect of single treatments,[2]; male mice,not effective
"Oc1cc(O)c2c(c1)O[C@H](c1ccc(O)c(O)c1)[C@H](O)C2 [EC, Epicatechin, reference compound]",effect of natural and synthetic catechins on Caco-2 growth,Caco-2 cells,no detectable activity
"O=C(O[C@@H]1Cc2c(O)cc(O)cc2O[C@@H]1c1cc(O)c(O)c(O)c1)c1cc(O)c(O)c(O)c1 [EGCG, reference compound]",koff,rHDHFR [3],0.12 s⁻¹
same,Ki,rHDHFR [3],920 nM
same,kon,rHDHFR [3],130000 M⁻¹ s⁻¹
same,Decrease % further EI reactions,rHDHFR [4],28 −fold
same,Ki,rHDHFR [4],33 nM
N[C@@H](Cc1ccc(O)c(O)c1)C(=O)O [L-dopa],Km,human tyrosinase,360 µM
"CN(Cc1cnc2nc(N)nc(N)c2n1)c1ccc(C(=O)N[C@@H](CCC(=O)O)C(=O)O)cc1 [MTX, methotrexate]",melanosome melanin content,SkMel-28 cells [5],much less melanin content
same,effect of leucovorin co-treatment on growth inhibition,"SkMel-28 cells [1]; 100 μM leucovorin, MTX 1 μM or TMECG 50 μM, 3 days",effectively reversed this inhibition
same,inhibition at 1 µM,"SkMel-28 cells [1]; Homo sapiens, SK-MEL-28, 72 h, 1 μM, 3 days, SkMel-28, read-out: growth inhibited",70%
same,effect of sulfasalazine (RFC inhibitor) on antiproliferative action,"SkMel-28 cells [1]; sulfasalazine 0.5 mM, MTX 0.2 μM or TMECG 10 μM, 3 days",inhibited the antiproliferative action of MTX
COc1cc(C(=O)O[C@H](Cc2c(O)cc(O)cc2O)C(=O)c2ccc(O)c(O)c2)cc(OC)c1OC [QM],reversibility of binding to rHDHFR,rHDHFR [3],essentially irreversible
same,koff,rHDHFR [3]; read-out: koff,0.00048 s⁻¹
same,Ki,rHDHFR [3],8.2 ± 0.11 nM
same,kon,rHDHFR [3]; read-out: kon,58000 M⁻¹ s⁻¹
same,Decrease % further EI reactions,rHDHFR [4],0 −fold
same,Ki,rHDHFR [4],8.2 nM
same,cellular uptake / membrane transport,[6],limited degree of cell membrane diffusion
same,stability,[7],high stability over a wide pH range
same,pKa,"[7]; absorbance at 470 nm vs pH, read-out: pKa of ionisable group",6.9 ± 0.1
"C[S+](CC[C@H](N)C(=O)O)C[C@H]1O[C@@H](n2cnc3c(N)ncnc32)[C@H](O)[C@@H]1O (stereo partly shown) [SAM, S-adenosylmethionine, reference compound]",effect of SAM alone on SkMel-28 growth,SkMel-28 cells [1]; SAM alone,Only high amount of SAM (up to 100 μM) affected SkMel-28 growth
same,IC50,"MAT2A; Sullivan and Hoffman, 1983, read-out: IC50 for inhibition of MAT2",60000 nM
"COc1cc(C(=O)O[C@H]2Cc3c(O)cc(O)cc3O[C@@H]2c2ccc(O)c(O)c2)cc(OC)c1OC [TMCG, 3-O-(3,4,5-Trimethoxybenzoyl)-(−)-Catechin]",growth of metastases (lung tumor volume),[8],slower growth of metastases
CSCC[C@H](N)C(=O)O [methionine],Km,MAT2A,4 to 10 µM
"epicatechin-3-gallate [ECG, reference compound]",koff,rHDHFR [3],0.30 s⁻¹
same,Ki,rHDHFR [3],1780 nM
same,kon,rHDHFR [3],170000 M⁻¹ s⁻¹
same,Decrease % further EI reactions,rHDHFR [4],19 −fold
same,Ki,rHDHFR [4],92 nM
